Data taken from patent publication US12304890B2, “R-type pyridyloxycarboxylic acid, salt and ester derivative thereof, and preparation method therefor, and herbicidal composition and application thereof” (Qingdao Kingagroot Chemical Compound Co., Ltd., priority 2018, dated 2025).

Tested on: Monocotyledonous and dicotyledonous weed seeds and main crop seeds
Test: Post-emergence test experiment, other weeds and crops (Table 4, 1000 g a.i./ha)
Assay type: in vivo
Details: 3 weeks in greenhouse, fresh weight inhibition
Experimental: The above described growth inhibition rate is fresh weight inhibition rate.
Post-emergence test experiment: Monocotyledonous and dicotyledonous weed seeds and main crop seeds (i. e. wheat, corn, rice, soybean, cotton, oilseed, millet and sorghum.) were put into a plastic pot loaded with soil. Then covered with 0.5-2 cm soil, the seeds were allowed to grow in good greenhouse environment. The test plants were treated at 2-3 leaf stage 2 weeks after sowing. The test compounds of the invention were dissolved with acetone respectively, then added with tween-80, and using 1.5 liters per hectare of an emulsible concentrate of methyl oleate as a synergist, and diluted by certain amount of water to certain concentration. The solution was sprayed to the plants with a sprayer.

SMILES | Activity level (growth inhibition rate), Abutilon theophrasti Medic. | Activity level (growth inhibition rate), Galium aparine | Activity level (growth inhibition rate), Monochoria Vaginalis
CC[C@@H](Oc1nc(F)c(Cl)c(N)c1Cl)C(=O)SC [Compound 2-33] | 5 (Level 5: the growth inhibition rate is greater than 85%) | 5 (Level 5: the growth inhibition rate is greater than 85%) | 5 (Level 5: the growth inhibition rate is greater than 85%)
CSC(=O)C(Oc1nc(F)c(Cl)c(N)c1Cl)c1ccccc1 (stereo not drawn) [Compound 2-385] | 5 (Level 5: the growth inhibition rate is greater than 85%) | 5 (Level 5: the growth inhibition rate is greater than 85%) | 5 (Level 5: the growth inhibition rate is greater than 85%)
COC(=O)C(Oc1nc(F)c(Cl)c(N)c1Cl)C(=O)OC [Compound 2-47] | 5 (Level 5: the growth inhibition rate is greater than 85%) | 5 (Level 5: the growth inhibition rate is greater than 85%) | 5 (Level 5: the growth inhibition rate is greater than 85%)
COC(=O)C(N)Oc1nc(F)c(Cl)c(N)c1Cl (stereo not drawn) [Compound 2-56] | 5 (Level 5: the growth inhibition rate is greater than 85%) | 5 (Level 5: the growth inhibition rate is greater than 85%) | 5 (Level 5: the growth inhibition rate is greater than 85%)
CCC(Oc1nc(F)c(Cl)c(N)c1Cl)C(=O)[O-].C[N+](C)(C)Cc1ccccc1 (stereo not drawn) [Compound 2-5] | 5 (Level 5: the growth inhibition rate is greater than 85%) | 5 (Level 5: the growth inhibition rate is greater than 85%) | 5 (Level 5: the growth inhibition rate is greater than 85%)
C=C[C@@H](Oc1nc(F)c(Cl)c(N)c1Cl)C(=O)OC [Compound 2-45] | 5 (Level 5: the growth inhibition rate is greater than 85%) | 5 (Level 5: the growth inhibition rate is greater than 85%) | 5 (Level 5: the growth inhibition rate is greater than 85%)
COC(=O)C(Oc1nc(F)c(Cl)c(N)c1Cl)C1CC1 (stereo not drawn) [Compound 2-38] | 5 (Level 5: the growth inhibition rate is greater than 85%) | 5 (Level 5: the growth inhibition rate is greater than 85%) | 5 (Level 5: the growth inhibition rate is greater than 85%)
NCCNCCN.Nc1c(Cl)c(F)nc(OC(C(=O)O)c2ccccc2)c1Cl (stereo not drawn) [Compound 2-15] | 5 (Level 5: the growth inhibition rate is greater than 85%) | 5 (Level 5: the growth inhibition rate is greater than 85%) | 5 (Level 5: the growth inhibition rate is greater than 85%)
COC(=O)C(CC(F)(F)F)Oc1nc(F)c(Cl)c(N)c1Cl (stereo not drawn) [Compound 2-40] | 5 (Level 5: the growth inhibition rate is greater than 85%) | 5 (Level 5: the growth inhibition rate is greater than 85%) | 5 (Level 5: the growth inhibition rate is greater than 85%)
CCCCOCCN [Compound 2-21, 2-butoxyethylamine] | 5 (Level 5: the growth inhibition rate is greater than 85%) | 5 (Level 5: the growth inhibition rate is greater than 85%) | 5 (Level 5: the growth inhibition rate is greater than 85%)
NC1CCCCCCCCCCC1 [Compound 2-13, cyclododecylamine] | 5 (Level 5: the growth inhibition rate is greater than 85%) | 5 (Level 5: the growth inhibition rate is greater than 85%) | 5 (Level 5: the growth inhibition rate is greater than 85%)
COC(=O)C(Oc1nc(F)c(Cl)c(N)c1Cl)C(C)C (stereo not drawn) [Compound 2-35] | 5 (Level 5: the growth inhibition rate is greater than 85%) | 5 (Level 5: the growth inhibition rate is greater than 85%) | 5 (Level 5: the growth inhibition rate is greater than 85%)
COC(=O)[C@@H](Oc1nc(F)c(Cl)c(N)c1Cl)c1nc(Cl)cs1 [Compound 2-67] | 5 (Level 5: the growth inhibition rate is greater than 85%) | 5 (Level 5: the growth inhibition rate is greater than 85%) | 5 (Level 5: the growth inhibition rate is greater than 85%)
COC(=O)C(Cc1ccccc1)Oc1nc(F)c(Cl)c(N)c1Cl (stereo not drawn) [Compound 2-63] | 5 (Level 5: the growth inhibition rate is greater than 85%) | 5 (Level 5: the growth inhibition rate is greater than 85%) | 5 (Level 5: the growth inhibition rate is greater than 85%)
COC(=O)C(C#N)Oc1nc(F)c(Cl)c(N)c1Cl (stereo not drawn) [Compound 2-61] | 5 (Level 5: the growth inhibition rate is greater than 85%) | 5 (Level 5: the growth inhibition rate is greater than 85%) | 5 (Level 5: the growth inhibition rate is greater than 85%)
COC(=O)C(Oc1nc(F)c(Cl)c(N)c1Cl)SC (stereo not drawn) [Compound 2-57] | 5 (Level 5: the growth inhibition rate is greater than 85%) | 5 (Level 5: the growth inhibition rate is greater than 85%) | 5 (Level 5: the growth inhibition rate is greater than 85%)
CCC(Oc1nc(F)c(Cl)c(N)c1Cl)C(=O)OC (stereo not drawn) [Compound 2-34] | 5 (Level 5: the growth inhibition rate is greater than 85%) | 5 (Level 5: the growth inhibition rate is greater than 85%) | 5 (Level 5: the growth inhibition rate is greater than 85%)
CCC(Oc1nc(F)c(Cl)c(N)c1Cl)C(=O)O.NCCO (stereo not drawn) [Compound 2-10] | 5 (Level 5: the growth inhibition rate is greater than 85%) | 5 (Level 5: the growth inhibition rate is greater than 85%) | 5 (Level 5: the growth inhibition rate is greater than 85%)
COC(=O)C(Cl)Oc1nc(F)c(Cl)c(N)c1Cl (stereo not drawn) [Compound 2-53] | 5 (Level 5: the growth inhibition rate is greater than 85%) | 5 (Level 5: the growth inhibition rate is greater than 85%) | 5 (Level 5: the growth inhibition rate is greater than 85%)
CCOC(=O)C(Oc1nc(F)c(Cl)c(N)c1Cl)C1CC1 (stereo not drawn) [Compound 2-383] | 5 (Level 5: the growth inhibition rate is greater than 85%) | 5 (Level 5: the growth inhibition rate is greater than 85%) | 5 (Level 5: the growth inhibition rate is greater than 85%)
CC(C)N.Nc1c(Cl)c(F)nc(O[C@@H](C(=O)O)c2ccccc2)c1Cl [Compound 2-8] | 5 (Level 5: the growth inhibition rate is greater than 85%) | 5 (Level 5: the growth inhibition rate is greater than 85%) | 5 (Level 5: the growth inhibition rate is greater than 85%)
COC(=O)C(Oc1nc(F)c(Cl)c(N)c1Cl)C(F)(F)F (stereo not drawn) [Compound 2-39] | 5 (Level 5: the growth inhibition rate is greater than 85%) | 5 (Level 5: the growth inhibition rate is greater than 85%) | 5 (Level 5: the growth inhibition rate is greater than 85%)
COC(=O)[C@H](Oc1nc(F)c(Cl)c(N)c1Cl)c1[nH]ncc1F [Compound 2-68] | 5 (Level 5: the growth inhibition rate is greater than 85%) | 5 (Level 5: the growth inhibition rate is greater than 85%) | 5 (Level 5: the growth inhibition rate is greater than 85%)
CN(CCCN)CCCN [Compound 2-19, N,N-bis[aminopropyl]methylamine] | 5 (Level 5: the growth inhibition rate is greater than 85%) | 5 (Level 5: the growth inhibition rate is greater than 85%) | 5 (Level 5: the growth inhibition rate is greater than 85%)
NCCNCCNCCN [Compound 2-18, triethylenetetramine] | 5 (Level 5: the growth inhibition rate is greater than 85%) | 5 (Level 5: the growth inhibition rate is greater than 85%) | 5 (Level 5: the growth inhibition rate is greater than 85%)
NCCOCCO.Nc1c(Cl)c(F)nc(O[C@@H](C(=O)O)c2ccccc2)c1Cl [Compound 2-11] | 5 (Level 5: the growth inhibition rate is greater than 85%) | 5 (Level 5: the growth inhibition rate is greater than 85%) | 5 (Level 5: the growth inhibition rate is greater than 85%)
